Measurements taken from PubChem BioAssay (NCI).
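Exposure lasted 48 hours, with cells grown in 96-well plates and compounds tested at five concentrations. TGI is the concentration that stops growth completely.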

Experiments:
Assay in all cases: inhibition of tumour cell growth, NCI panel, 48 h
[1] = system: TK-10 renal
[2] = system: RPMI-8226 leukemia
[3] = system: ACHN renal
[4] = system: UACC-257 melanoma
[5] = system: K-562 leukemia
[6] = system: 786-0 renal
[7] = system: COLO 205 colon
[8] = system: UACC-62 melanoma
[9] = system: MDA-MB-231 breast
[10] = system: OVCAR-5 ovarian
[11] = system: M14 melanoma
[12] = system: HT29 colon
[13] = system: OVCAR-4 ovarian
[14] = system: SF-295 CNS
[15] = system: NCI-H460 lung
[16] = system: SNB-75 CNS
[17] = system: HCC-2998 colon
[18] = system: CCRF-CEM leukemia
[19] = system: SK-OV-3 ovarian
[20] = system: HCT-116 colon
[21] = system: A498 renal
[22] = system: MDA-MB-435
[23] = system: UO-31 renal
[24] = system: HOP-92 NSCLC
[25] = system: IGROV1 ovarian
[26] = system: CAKI-1 renal
[27] = system: SF-539 CNS
[28] = system: SF-268 CNS
[29] = system: HS 578T breast
[30] = system: T-47D breast
[31] = system: MDA-N
[32] = system: SK-MEL-28 melanoma
[33] = system: DU-145 prostate
[34] = system: NCI-H226 lung
[35] = system: MALME-3M melanoma
[36] = system: KM12 colon
[37] = system: NCI-H23 lung
[38] = system: SK-MEL-5 melanoma
[39] = system: U251 CNS
[40] = system: A549 NSCLC
[41] = system: LOX IMVI melanoma
[42] = system: SNB-19 CNS
[43] = system: HCT-15 colon
[44] = system: NCI-H522 lung
[45] = system: OVCAR-8 ovarian
[46] = system: PC-3 prostate
[47] = system: NCI/ADR-RES ovarian
[48] = system: OVCAR-3 ovarian
[49] = system: SR leukemia
[50] = system: RXF 393 renal
[51] = system: SN12C renal
[52] = system: MOLT-4 leukemia
[53] = system: SW-620 colon
[54] = system: SK-MEL-2 melanoma
[55] = system: HOP-62 NSCLC
[56] = system: HL-60(TB) leukemia
[57] = system: EKVX NSCLC
[58] = system: MCF7 breast

In the case of `COC(C/C(=C/CO[Si](C(C)C)(C(C)C)C(C)C)C(=O)Nc1ccccc1I)OC`, the TGI [1] is reported as greater than 100 µM, the TGI [2] is reported as 43.4 µM and the TGI [3] is reported as greater than 100 µM. The TGI [4] was greater than 100 µM, the TGI [5] was greater than 100 µM and the TGI [6] was greater than 100 µM. For the same molecule, the TGI [7] was greater than 100 µM, the TGI [8] was greater than 100 µM and the TGI [9] was 46 µM. It also gave a TGI [10] of 70 µM, a TGI [11] greater than 100 µM and a TGI [12] greater than 100 µM. For the same molecule, the TGI [13] was greater than 100 µM, the TGI [14] was 28.2 µM and the TGI [15] was greater than 100 µM. It also gave a TGI [16] greater than 100 µM, a TGI [17] of 40 µM and a TGI [18] greater than 100 µM. For the same molecule, the TGI [19] was greater than 100 µM, the TGI [20] was 39.8 µM and the TGI [21] was greater than 100 µM. It also gave a TGI [22] greater than 100 µM, a TGI [23] greater than 100 µM and a TGI [24] of 61.7 µM. It also gave a TGI [25] of 28.7 µM, a TGI [26] greater than 100 µM and a TGI [27] of 48.4 µM. It also gave a TGI [28] greater than 100 µM, a TGI [29] greater than 100 µM and a TGI [30] greater than 100 µM. For the same molecule, the TGI [31] was greater than 100 µM, the TGI [32] was greater than 100 µM and the TGI [33] was greater than 100 µM. For the same molecule, the TGI [34] was 98.5 µM, the TGI [35] was 31.8 µM and the TGI [36] was greater than 100 µM. For the same molecule, the TGI [37] was greater than 100 µM, the TGI [38] was greater than 100 µM and the TGI [39] was greater than 100 µM. It also gave a TGI [40] greater than 100 µM, a TGI [41] of 45.5 µM and a TGI [42] of 42.5 µM. For the same molecule, the TGI [43] was 71.1 µM, the TGI [44] was 6.05 µM and the TGI [45] was greater than 100 µM. The TGI [46] was 62.2 µM, the TGI [47] was greater than 100 µM and the TGI [48] was 51.8 µM. It also gave a TGI [49] greater than 100 µM, a TGI [50] of 27.1 µM and a TGI [51] greater than 100 µM. It also gave a TGI [52] greater than 100 µM, a TGI [53] greater than 100 µM and a TGI [54] of 31.1 µM. For the same molecule, the TGI [55] was greater than 100 µM.
`C[C@@H]1C[C@@H](O)[C@@]2(O)C13CC(=O)OC(C3)[C@@H](C)[C@@]2(C)CO` (some centres undefined) showed a TGI [1] greater than 100 µM, a TGI [2] greater than 100 µM and a TGI [3] greater than 100 µM. For the same molecule, the TGI [4] was greater than 100 µM, the TGI [56] was greater than 100 µM and the TGI [5] was greater than 100 µM. It also gave a TGI [6] greater than 100 µM, a TGI [7] greater than 100 µM and a TGI [8] greater than 100 µM. For the same molecule, the TGI [9] was greater than 100 µM, the TGI [57] was greater than 100 µM and the TGI [10] was greater than 100 µM. It also gave a TGI [11] greater than 100 µM, a TGI [12] greater than 100 µM and a TGI [13] greater than 100 µM. It also gave a TGI [14] greater than 100 µM, a TGI [15] greater than 100 µM and a TGI [17] greater than 100 µM. It also gave a TGI [19] greater than 100 µM, a TGI [20] greater than 100 µM and a TGI [21] greater than 100 µM. It also gave a TGI [22] greater than 100 µM, a TGI [23] greater than 100 µM and a TGI [58] greater than 100 µM. The TGI [24] was greater than 100 µM, the TGI [25] was greater than 100 µM and the TGI [27] was greater than 100 µM. The TGI [28] was greater than 100 µM, the TGI [29] was greater than 100 µM and the TGI [30] was greater than 100 µM. For the same molecule, the TGI [31] was greater than 100 µM, the TGI [32] was greater than 100 µM and the TGI [33] was greater than 100 µM. For the same molecule, the TGI [34] was greater than 100 µM, the TGI [35] was greater than 100 µM and the TGI [36] was greater than 100 µM. For the same molecule, the TGI [37] was greater than 100 µM, the TGI [38] was greater than 100 µM and the TGI [39] was greater than 100 µM. For the same molecule, the TGI [40] was greater than 100 µM, the TGI [41] was greater than 100 µM and the TGI [42] was greater than 100 µM. The TGI [43] was greater than 100 µM, the TGI [44] was greater than 100 µM and the TGI [45] was greater than 100 µM. For the same molecule, the TGI [46] was greater than 100 µM, the TGI [47] was greater than 100 µM and the TGI [48] was greater than 100 µM. The TGI [49] was greater than 100 µM, the TGI [50] was greater than 100 µM and the TGI [51] was greater than 100 µM. The TGI [52] was greater than 100 µM, the TGI [53] was greater than 100 µM and the TGI [54] was greater than 100 µM. For the same molecule, the TGI [55] was greater than 100 µM.
Work on `O=C1/C(=C/c2ccc(Cl)cc2)NC(=S)N1CN1CCOCC1` yielded a TGI [1] greater than 100 µM, a TGI [2] greater than 100 µM and a TGI [3] greater than 100 µM. It also gave a TGI [4] greater than 100 µM, a TGI [5] greater than 100 µM and a TGI [6] greater than 100 µM. The TGI [7] was greater than 100 µM, the TGI [8] was greater than 100 µM and the TGI [9] was greater than 100 µM. It also gave a TGI [57] greater than 100 µM, a TGI [10] greater than 100 µM and a TGI [11] greater than 100 µM. The TGI [12] was greater than 100 µM, the TGI [13] was greater than 100 µM and the TGI [14] was greater than 100 µM. It also gave a TGI [16] greater than 100 µM, a TGI [18] greater than 100 µM and a TGI [19] greater than 100 µM. The TGI [20] was greater than 100 µM, the TGI [21] was greater than 100 µM and the TGI [22] was greater than 100 µM. For the same molecule, the TGI [23] was greater than 100 µM, the TGI [58] was greater than 100 µM and the TGI [24] was greater than 100 µM. The TGI [25] was greater than 100 µM, the TGI [28] was greater than 100 µM and the TGI [29] was greater than 100 µM. For the same molecule, the TGI [31] was greater than 100 µM, the TGI [32] was greater than 100 µM and the TGI [33] was greater than 100 µM. It also gave a TGI [34] greater than 100 µM, a TGI [35] greater than 100 µM and a TGI [36] greater than 100 µM. It also gave a TGI [37] greater than 100 µM, a TGI [38] greater than 100 µM and a TGI [39] greater than 100 µM. For the same molecule, the TGI [40] was greater than 100 µM, the TGI [41] was greater than 100 µM and the TGI [42] was greater than 100 µM. It also gave a TGI [43] greater than 100 µM, a TGI [45] greater than 100 µM and a TGI [46] greater than 100 µM. It also gave a TGI [47] greater than 100 µM, a TGI [48] greater than 100 µM and a TGI [51] greater than 100 µM. The TGI [52] was greater than 100 µM, the TGI [53] was greater than 100 µM and the TGI [54] was greater than 100 µM. It also gave a TGI [55] greater than 100 µM.
